# Source: patent US20250170265A1 (priority 2023, published 2025)
# Values joined by “and” are separate entries in the source; they are usually repeats but may differ in a detail not shown here. Identical values can stand only once. Like-named read-outs stand apart in the source and are kept apart here.
# Columns and labels:
# pBR322 = type: biochemical
# [1] = tested on: supercoiled pBR322 plasmid DNA; type: biochemical
# [2] = Stability of diazonium compounds (NMR in D2O with acetonitrile internal standard); type: physicochemical
# [3] = tested on: supercoiled pBR322 plasmid DNA; settings: read-out: EC50 value
# [4] = tested on: supercoiled pBR322 plasmid DNA
# [5] = tested on: linearized (EcoRV-HF-digested) pBR322 double stranded DNA
# [6] = tested on: supercoiled pBR322 plasmid DNA; settings: for EC50: 525 nm
# Experimental for HeLa cells: General cell culture protocol: HeLa cells were grown in DMEM growth media (GIBCO 11995065) with 10% FBS (GIBCO A5670401) in 75 cm^2 surface treated culture dishes (Fisherbrand FB012937) and were incubated in a cell culture chamber (37° C. with 5% CO2). Cells were kept at a maximum confluency of 80% and passaged up to 20 times. For each passage, the cells were washed with 1×PBS (GIBCO 20012027), detached from the plate by incubation with 0.25% Trypsin-EDTA (GIBCO 25200072) for 3-4 minutes in the cell culture chamber, and then diluted with growth media. The cells were spun down at 300×g at 4° C. for 5 minutes, resuspended with fresh growth media, and replated in a new flask.
# Cell viability assay and IC50 procedure: The media in the cell culture dish was aspirated, and the cells were washed with 1×PBS. The cells were detached from the plate by 4-minute incubation with 0.25% Trypsin-EDTA in the cell culture chamber. The cells were then diluted with DMEM and were spun down at 300×g at 4° C. for 5 minutes. The media was aspirated, and the cell pellet was resuspended in fresh DMEM. The cells were counted and seeded in 6-well culture plates at 50,000 cells/well and incubated overnight. Alongside the 6-well plates, 35 mm glass bottom confocal plates (Fisher Scientific NC0409658) were also seeded with 50,000 cells/plate. 24 hours after the initial seeding, the media in the plates were aspirated and the cells were washed with 1×PBS. […] The wash buffer was aspirated from the plates and 2 mL of the corresponding diazonium dilutions was added to the respective wells in the 6-well plates, all in triplicate, in addition to the confocal plates. All plates were incubated in ambient light for 45 minutes in the cell culture hood and then for 1 hour in the cell culture chamber (37° C. with 5% CO2). Control wells with 2 mL 1×PBS pH 6.6 alone with no diazonium as well as additional control wells with 2 mL DMEM alone with no diazonium, all in triplicate, were also incubated alongside the wells with the diazonium solutions. The plates were then removed from the incubators and the solutions from all the dishes were aspirated and replaced with 2 mL of fresh DMEM. The plates were incubated in the cell culture chamber for 3 days. After the 3-day incubation, the respective cell viability of each well was measured using the PrestoBlue™ Cell Viability Procedure. To each well was added 200 μL of 10× PrestoBlue™ Cell Viability Reagent (ThermoFisher Scientific A13261) and the plates were then incubated in the cell culture chamber for 3 hours. The plates were then analyzed using a plate reader (SpectraMax iD5) by measuring the fluorescence at an excitation of 560 nm and emission of 590 nm. […]
compound,measurement,setting,value
"Nc1cccc2c(N)cccc12 [1,5-diaminonaphthalene, reference compound]",cleavage of pBR322 (gel pattern),pBR322,no cleavage was observed
"F[B-](F)(F)F.N#[N+]c1ccccc1 [Compound 1, benzenediazonium tetrafluoroborate]",DNA cleavage potency (in words),[1],limited activity
same,EC50,[1]; read-out: EC50,18800 nM
"COc1ccc([N+]#N)cc1.F[B-](F)(F)F [Compound 5, 4-methoxy-benzene-1-diazonium tetrafluoroborate]",EC50,[1]; read-out: EC50 value,69800 nM
"N#[N+]c1ccc([N+](=O)[O-])c2ccccc12 [Compound 7, 4-nitro-naphthalene-1-diazonium tetrafluoroborate]",EC50,[1]; read-out: EC50 value,531 nM
"F[B-](F)(F)F.F[B-](F)(F)F.N#[N+]c1cccc2c([N+]#N)cccc12 [Compound 10, naphthalene-1,5-bisdiazonium tetrafluoroborate]",EC50,[1]; read-out: EC50 value,31.7 nM
same,diazonium/IS ratio,[2]; 1 hour,0.59
same,diazonium/IS ratio,[2]; 2 hours,0.56
same,diazonium/IS ratio,[2]; 6 hours,0.49
same,diazonium/IS ratio,[2]; 24 hours,0.41
same,diazonium/IS ratio,[2]; T0 (immediately after sample preparation),0.62
same,cleavage of pBR322 (gel pattern),"pBR322; 500 nM, 525 nm irradiation 1.5 hours",two new bands
"(R)-[1,1′-binaphthalene]-2,2′-bisdiazonium tetrafluoroborate [Compound 23]",EC50,[1]; read-out: EC50 value,42 nM
"(S)-[1,1′-binaphthalene]-2,2′-bisdiazonium tetrafluoroborate [Compound 24]",EC50,[1]; read-out: EC50 value,140 nM
"N^1,N^3,N^5-tris(benzene-4-diazonium)benzene-1,3,5-tricarboxamide tetrafluoroborate [Compound 29]",DNA cleavage potency (in words),[1],no notable improvement
same,EC50,[1]; read-out: EC50 value,101 nM
"benzophenone-3,3′-bisdiazonium tetrafluoroborate [Compound 18]",EC50,[1]; read-out: EC50 value,31.5 nM
"benzophenone-4,4′-bisdiazonium tetrafluoroborate [Compound 17]",EC50,[1]; read-out: EC50 value,24 nM
ethidium bisdiazonium tetrafluoroborate [Compound 26],DNA cleavage potency (in words),[1],only modest potency
same,EC50,[1]; read-out: EC50 value,136 nM
tetrakis(benzene-4-diazonium)ethylene tetrafluoroborate [Compound 27],DNA cleavage potency (in words),[1],excellent potency
same,EC50,[1]; read-out: EC50 value,33 nM
tetrakis(benzene-4-diazonium)methane tetrafluoroborate [Compound 28],DNA cleavage potency (in words),[1],excellent potency
same,EC50,[1],0.00214 µg/mL
same,EC50,[1]; read-out: EC50 value,2.76 nM
same,EC50,[3],3.62 nM and 13.7 nM and 14.9 nM
same,EC50,"[4]; read-out: DNA cleavage EC50 value, in the dark without cysteine",976 nM and ~1000 nM and 1000 nM
same,EC50,"[4]; read-out: EC50 value, presence of cysteine in the dark",30.8 nM
same,concentrations giving noticeable cleavage into low molecular weight fragments,"[5]; pre-linearized pBR322 (Form III, 40 μM/bp), 525 nm light in water for 1 hour",≥ 100 nM
same,EC50,"[5]; read-out: EC50 value, linearized pBR322, green light 525 nm, supercoiled pBR322 as internal standard",126 nM
same,plate confluency after 3 days,HeLa cells; 1.25 μM,over 90%
same,plate confluency after 3 days,HeLa cells; 10 μM,less than 10%
same,IC50 (cell viability),"HeLa cells; ambient light 45 min then 1 h at 37° C., 3-day incubation",5.23 µg/mL
same,IC50,"HeLa cells; read-out: IC50 (cell viability), ambient light 45 min then 1 h at 37° C., 3-day incubation",6710 nM
same,"decrease in activity, degassed vs standard deionized water",[6],2 log scale
same,EC50,[6]; degassed deionized water,172 nM
same,EC50,"[6]; standard deionized water, run alongside as control",1.64 nM
